Experiment [1] has as its system ACAT. The experiment is described as follows: Assay of ACAT inhibitory activity in a specimen prepared from rabbit liver. The class given is biochemical, New Zealand white rabbit. To be noted: enzyme specimen from liver of cholesterol-fed rabbit, [1-^14C]oleoyl-CoA and endogenous cholesterol. How it is done:
1. Assay of ACAT inhibitory activity in a specimen prepared from rabbit liver
An enzyme specimen ACAT was prepared according to the method disclosed in the literature: J. Lipid. Research, 30, 681-690, 1989, from the liver of New Zealand white rabbit which had been fed with 1 % cholesterol feed for one month. The ACAT activity was determined according to the method disclosed in the literature: J. Lipid Research. 24, 1127-1134, 1983, i.e., using radioactive [1-^14C]oleoyl-CoA and endogenous cholesterol contained in the liver microsome, and calculated from the radioactivity of the labeled cholesterol oleate.

For experiment [2], the target named is T1, ACAT (Rattus norvegicus, UniProt O70536).
T1 construct: endogenous in cells; host or cells: rat peritoneal macrophages (primary cells)
T1 sequence (O70536 1-545): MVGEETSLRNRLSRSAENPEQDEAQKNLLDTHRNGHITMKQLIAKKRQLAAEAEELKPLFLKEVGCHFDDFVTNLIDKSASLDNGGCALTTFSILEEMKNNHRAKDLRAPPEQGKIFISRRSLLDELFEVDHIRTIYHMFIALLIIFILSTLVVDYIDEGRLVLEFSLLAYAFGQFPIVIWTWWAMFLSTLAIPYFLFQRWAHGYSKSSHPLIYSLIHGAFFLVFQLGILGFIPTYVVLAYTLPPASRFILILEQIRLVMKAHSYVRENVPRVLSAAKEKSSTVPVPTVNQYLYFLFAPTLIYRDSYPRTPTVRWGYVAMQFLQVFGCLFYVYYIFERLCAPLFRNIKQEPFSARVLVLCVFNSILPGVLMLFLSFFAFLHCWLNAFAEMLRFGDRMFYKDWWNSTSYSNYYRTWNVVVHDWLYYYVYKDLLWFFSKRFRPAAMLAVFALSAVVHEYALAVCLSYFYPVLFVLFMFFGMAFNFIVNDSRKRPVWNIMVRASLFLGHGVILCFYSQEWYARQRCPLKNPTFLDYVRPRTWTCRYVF
Description: Assay of ACAT inhibitory activity in the macrophage derived from rat peritoneal. The experiment is classed as cell-based. To be noted: 10^-6 M, radioactive oleic acid and exogenous cholesterol in liposome, read-out: ACAT inhibitory rate (%) 10^-6 M. Here is the method: 2. Assay of ACAT inhibitory activity in the macrophage derived from rat peritoneal
The rat peritoneal-derived macrophage was prepared according to the method disclosed in the literature: Biochimica et Biophysica Acta, 1126, 73-80, 1992. The ACAT activity was determined by a modified method of the method disclosed in the above literature: Biochimica et Biophysica Acta, 1126, 73-80, 1992, i.e., using radioactive [9,10-H]oleic acid and exogenous cholesterol contained in the liposome which was re-constituted according to the method disclosed in the literature: Biochimica Biophysica Acta, 1213, 127-134, 1994, and calculated from the labeled cholesterolyl oleate.

For `CC(C)c1cccc(C(C)C)c1NC(=O)Nc1c(-c2ccccc2Cl)c2cccnc2n(C)c1=O` [Example 4, N-[1-methyl-4-(2-chlorophenyl)-1,2-dihydro-2-oxo-1,8-naphthyridin-3-yl]-N'-(2,6-diisopropylphenyl)urea], in the experiment with ACAT [1], the “ACAT inhibitory rate (%) 10^-6 M” value worked out at 87%. Also, the inhibition at 1 µM at ACAT [2] is 88%.
For the compound `CC(C)c1cccc(C(C)C)c1NC(=O)Nc1c(-c2ccccc2Cl)c2ccncc2n(C)c1=O` [Example 6, N-[1-methyl-4-(2-chlorophenyl)-1,2-dihydro-2-oxo-1,7-naphthyridin-3-yl]-N'-(2,6-diisopropylphenyl)urea], in the experiment on ACAT [1], the “ACAT inhibitory rate (%) 10^-6 M” value stood at 82%.
`COc1cccc(-c2c(NC(=O)Nc3c(C(C)C)cccc3C(C)C)c(=O)n(C)c3ncccc23)c1` [Example 7, N-[1-methyl-4-(3-methoxyphenyl)-1,2-dihydro-2-oxo-1,8-naphthyridin-3-yl]-N'-(2,6-diisopropylphenyl)urea]: the inhibition at 1 µM at ACAT [2] is 94%.

The record behind these values is patent publication EP0842933B1, “NOVEL NAPHTHYRIDINE DERIVATIVES” (SUMITOMO PHARMACEUTICALS COMPANY, LIMITED, priority 1995, dated 1996).
